Source: US10736913B1, “Use of inosine for cancer immunotherapy” (IMMUNOSPARKLE BIOSCIENCE LLC, priority 2019, dated 2020)
“Also recorded” adds a separate entry of the source.

What was measured:
[1] = test system: H2k1, H2d1, Stat1, Stat3, Irf1 mRNA in B16 cells; assay: Reverse transcription quantitative PCR of antigen presentation-related and IFN signaling genes; type: cell-based, murine; conditions: inosine at 500
Procedure: Tumor cells cDNA was prepared using 1 μg RNA with the qScript cDNA Synthesis Kit (Bio-Rad). SYBR green-based qPCR was performed using murine primers to H2k1, H2d1, Stat1, Stat3, and Irf1. Relative copy number was determined by calculating the fold-change difference in the gene of interest relative to 18sRNA (ΔCt=Ct gene of interest−Ct 18sRNA) and reported as relative mRNA expression (ΔΔCt=2^−(ΔCt sample−ΔCt control)) or fold change. qPCR was performed on an Applied Biosystems 7300 machine.

[2] = test system: MHC-I (H2kb) on B16 cells; assay: Flow cytometry of membrane MHC-I (H2kb) expression; type: cell-based, murine; conditions: inosine at 500
Procedure: B16 cells were stained for flow cytometry to determine the membrane MHC-I expression level.
For MHC-I expression flow analysis on the tumor cell, one million cells per condition were stained with the PE anti-mouse H-2Kb antibody (Biolegend) diluted in PBS plus 2% FBS and kept for 30 min on ice. Matched isotype control Ab was performed as a control.

B16-GM tumors = assay: B16-GM metastatic melanoma tumor model in mice (tumor volume, weight, lung metastasis, survival)
Procedure: B16-GM cells were injected subcutaneously into eight-week-old female C57BL/6 mice (2×10^5/mouse). Anti-CTLA4 antibody (100 μg per mouse) and anti-PD-1 antibody (200 μg per mouse) were injected i.p on days 7, 10, 13 and 16. 400 mg/kg of inosine per day was orally administered to mice from day 4 to day 21.
(§1) All the cell lines were confirmed to be mycoplasma free. Cells were cultured using DMEM (Corning) with 10% fetal bovine serum (Corning) and 1% Pen/Strep (Life Technologies). Cells were incubated in an incubator maintained at 37° C. and 5% CO2. 75-80% of confluent cells were harvested for orthotopic injection.
(§2) For the melanoma model, 2×10^5 B16 or B16-GM cells were harvested for orthotopic injection into the subcutaneous (s.c.) of C57BL/6J mice (6-8 weeks) using 0.25% Trypsin (Corning) and suspended in DPBS (Gibco).
(§3) Treatments were given as single agents or in combination with the following regimen. Inosine (Sigma-Aldrich) was dissolved in sterilized water to yield a concentration of 40 mg/ml, and administered by oral gavage once a day at 400 mg/kg body weight. Treatment was initiated on day 4 and ended on day 21 post tumor implant. Control groups received vehicle (water) by oral gavage. […] Tumors were measured every third day with a caliper, and measurements were assessed manually by assessing the longest dimension (length) and the longest perpendicular dimension (width). […]

B16 tumors = assay: B16 melanoma tumor model in mice (tumor volume, survival); conditions: B16 tumor-bearing C57BL/6 mice; inosine 400 mg/kg/day oral from day 4; anti-CTLA4 100 μg + anti-PD-1 200 μg i.p. days 7, 10, 13, 16
Procedure: B16 cells were injected subcutaneously into eight-week-old female C57BL/6 mice (2×10^5/mouse). Anti-CTLA4 antibody (100 μg per mouse) and anti-PD-1 antibody (200 μg per mouse) were injected i.p on days 7, 10, 13 and 16. 400 mg/kg body weight of inosine per day was orally administered to mice from day 4.
as §1, §2, §3

B16 tumor cells [3] = assay: Cell apoptosis assay (Annexin V / 7-AAD flow cytometry); type: cell-based, murine; conditions: B16 cells in vitro; inosine same concentrations as FIG. 2A; 48 h
Procedure: Tumor cells were seeded in a 6-well plate and grown for 24 h. Cells were then treated with control (vehicle) or 1, 10, 50, 100 μM inosine. After 48 h of treatment, cells were harvested by trypsinization, resuspended at 10^6 cells/ml in 1× Annexin V Binding Buffer (BD Biosciences), and 100 μl (10^5 cells) were added to each FACS tube. Cells were stained with 7-AAD (5 μl/100 μl, BD Biosciences, to assess cell death), and APC-conjugated Annexin V (5 μl/100 μl, BD Biosciences, to assess apoptosis) for 30 min and analyzed by BD FACSCanto II. FACS data were acquired using FACSDiva (BD Biosciences) and analyzed using FlowJo software (Tree Star) and the percentage of APC^+ cells obtained.

B16 tumor cells [4] = assay: MTT cell proliferation assay; type: cell-based, murine; conditions: B16 cells in vitro; inosine 10, 50, 200 μM; 0-96 h
Procedure: MTT assays were used to determine the cell viability of B16 tumor cells treated with control vehicle; the concentration of inosine administered is indicated, where “Ino-10” means 10 μM Inosine; “Ino-50” means 50 μM Inosine and “Ino-200” means 200 μM Inosine.
Cell proliferation ability was examined at 0, 24, 48, 72 h and 96 h using a Cell Proliferation Reagent Kit I (MTT; Sigma) according to the manufacturer's instruction. Cells were seeded in a 96-well plate in triplicate at a concentration of 2×10^3 cells/well. On the indicated day, the medium was removed and the MTT solution was added to the wells. Four hours later, DMSO was added and the cells were further incubated for 10 min with gentle shaking at 37° C. Finally, the optical density of each well was measured using a microplate reader at 550 nm.

[5] = background; cited from earlier work
4T1 tumors = assay: 4T1 breast cancer tumor model in mice (tumor volume, weight); type: in vivo; conditions: 4T1 tumor-bearing Balb/c mice; inosine 400 mg/kg/day oral day 4 to 21; anti-CTLA4 100 μg + anti-PD-1 200 μg i.p. days 7, 10, 13, 16
Procedure: 4T1 cells were injected into the mammary fat pad of eight-week-old female Balb/c mice (2×10^5/mouse). […] Results are shown as mean±SEM. (*** indicates P<0.001).
4T1 cells were injected into the mammary fat pad of eight-week-old female Balb/c mice (2×10^5/mouse). […] Results are shown as mean±SEM. (** indicates P<0.01)

[6] = test system: CD4+ and CD8+ T cells in B16 tumors; assay: Flow cytometry of tumor-infiltrating T lymphocytes in B16 tumors; type: in vivo, C57BL/6 mice; conditions: n=5 tumors
Procedure: Tumors from the indicated treatment group were mechanically minced for the isolation of infiltrating lymphocytes. Cells were counted and stained for flow cytometry to determine the percentage of CD4^+ and CD8^+ T lymphocytes in total CD45^+ immune cells.
Results are shown as mean±SEM (* P<0.05; ** P<0.01) and statistics were calculated using the unpaired t-test with Welch's correction.
Mouse tumor samples were minced with scissors before incubation with dissociation buffer (2 mg/ml collagenase type A, 0.02 mg/ml DNase in RPMI1640 containing 5% FBS, PenStrep) with agitation at 37° C. for 45 min. Tumor samples were homogenized by repeated pipetting and filtered through a 70-μm nylon filter (BD Biosciences) in RPMI supplemented with 10% FBS to generate single-cell suspensions. Cell suspensions were washed once with complete RPMI. After lysis of red blood cells, single-cell suspensions were blocked with anti-CD16/32 (Biolegend) for 20 min on ice and then incubated with appropriate antibodies for 30 min on ice: anti-CD45-APC-Cy7, CD3-FITC, CD8-PercP-Cy5.5, CD4-PE. Dead cells and doublets were excluded on the basis of forward and side scatter and Fixable Viability Dye eFluor 450 (eBioscience). Flow cytometry was performed on FACSCanto II (BD Biosciences), and data were analyzed using FlowJo (TreeStar).

OC[C@H]1O[C@@H](n2cnc3c(O)ncnc32)[C@H](O)[C@@H]1O [inosine, 9-[(2R,3R,4S,5R)-3,4-dihydroxy-5-(hydroxymethyl)oxolan-2-yl]-1H-purin-6-one]
relative mRNA expression of antigen presentation-related genes (H2k1, H2d1) and IFN signaling genes (Stat1, Stat3, Irf1) [1]: stimulates interferon signaling and antigen presentation-related genes; also recorded: increases the expression of antigen presentation-related genes and IFN signaling genes
membrane MHC-I (H2kb) expression [2]: enhances the expression of MHC-I; also recorded: increases the membrane protein level of MHC-I
tumor volume / tumor growth (B16-GM tumors; B16-GM tumor-bearing C57BL/6 mice, inosine 400 mg/kg/day oral day 4 to 21, anti-CTLA4 100 μg + anti-PD-1 200 μg i.p. days 7, 10, 13, 16): reduced tumor size
lung metastasis (metastatic nodules) (B16-GM tumors; B16-GM tumor-bearing mice, day 18): significant reduction in lung metastasis
tumor volume / tumor growth (B16 tumors): inhibited tumor growth in vivo; also recorded: enhanced the antitumor efficacy of ICB
apoptotic tumor cells (B16 tumor cells [3]): didn't inhibit tumor cell proliferation and promote apoptosis; also recorded: doesn't induce the apoptosis
proliferation / cell viability (MTT) (B16 tumor cells [4]): didn't inhibit tumor cell proliferation; also recorded: doesn't inhibit the proliferation
half-life [5]: approximately 15 h
tumor volume / tumor growth (4T1 tumors): does not significantly affect tumor growth
CD8+ T cell population in tumors [6]: increased the cytotoxic CD8^+ T infiltration
